Measured values as given in PMC8723806 (Journal of the Iranian Chemical Society, 2022).
pIC50: −log10 of the molar value.

Legend:
COX-2 = molecular target: T1, COX-2 (Ovis aries, UniProt P79208); assay: In vitro COX-2 inhibition, colorimetric enzyme immune assay; type: biochemical, ovine; conditions: for COX-2 SI (COX-1 IC50/COX-2 IC50): in vitro COX-2 selectivity index; for COX-2 inhibition, in words: compared with celecoxib
T1 sequence (P79208 17-603): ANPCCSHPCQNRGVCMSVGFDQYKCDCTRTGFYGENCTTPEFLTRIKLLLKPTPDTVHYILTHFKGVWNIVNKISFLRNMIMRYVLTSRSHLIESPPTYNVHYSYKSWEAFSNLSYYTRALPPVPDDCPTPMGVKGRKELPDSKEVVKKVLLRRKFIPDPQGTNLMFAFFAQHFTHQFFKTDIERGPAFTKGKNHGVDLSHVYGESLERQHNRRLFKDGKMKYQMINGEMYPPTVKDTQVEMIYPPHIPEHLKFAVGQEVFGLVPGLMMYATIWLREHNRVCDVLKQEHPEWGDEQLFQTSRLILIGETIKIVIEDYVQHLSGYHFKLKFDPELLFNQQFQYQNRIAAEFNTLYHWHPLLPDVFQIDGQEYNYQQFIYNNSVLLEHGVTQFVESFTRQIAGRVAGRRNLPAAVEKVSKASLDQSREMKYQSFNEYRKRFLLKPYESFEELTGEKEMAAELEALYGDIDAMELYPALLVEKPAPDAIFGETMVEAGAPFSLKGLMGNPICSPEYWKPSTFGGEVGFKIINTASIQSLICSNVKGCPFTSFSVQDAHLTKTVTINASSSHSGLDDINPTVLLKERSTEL

COX-1 = molecular target: T2, COX-1 (Ovis aries, UniProt P05979); assay: In vitro COX-1 inhibition, colorimetric enzyme immune assay; type: biochemical, ovine
T2 sequence (P05979 25-600): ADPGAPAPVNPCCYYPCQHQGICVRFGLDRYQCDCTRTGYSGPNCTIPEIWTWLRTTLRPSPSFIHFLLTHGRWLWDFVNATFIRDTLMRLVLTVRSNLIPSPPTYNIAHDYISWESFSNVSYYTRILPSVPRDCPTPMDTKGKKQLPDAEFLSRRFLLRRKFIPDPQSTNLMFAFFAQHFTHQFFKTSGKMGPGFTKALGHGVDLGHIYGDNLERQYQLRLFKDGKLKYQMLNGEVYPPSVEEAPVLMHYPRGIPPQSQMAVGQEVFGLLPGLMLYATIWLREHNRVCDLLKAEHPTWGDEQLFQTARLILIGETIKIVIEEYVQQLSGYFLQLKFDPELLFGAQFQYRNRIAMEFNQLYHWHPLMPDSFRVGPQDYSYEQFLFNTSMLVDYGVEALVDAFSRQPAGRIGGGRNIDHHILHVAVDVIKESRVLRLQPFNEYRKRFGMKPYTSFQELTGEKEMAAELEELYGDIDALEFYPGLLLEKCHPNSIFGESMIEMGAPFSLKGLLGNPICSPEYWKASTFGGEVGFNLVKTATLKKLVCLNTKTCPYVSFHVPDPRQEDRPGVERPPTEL

Compound | COX-2 SI (COX-1 IC50/COX-2 IC50) (COX-2) | pIC50 (COX-1) | COX-2 inhibition, in words (COX-2)
O=[N+]([O-])c1ccc(-c2ccccc2F)cc1 [Compound 3a, 2-Fluoro-4'-nitrobiphenyl] | 84.16 |  | 
Fc1ccccc1-c1ccc(F)c(C(F)(F)F)c1 [Compound 3b, 2,4'-Difluoro-3'-(trifluoromethyl) biphenyl] | 101.99 | 4.95 | 
Fc1ccc(-c2ccccc2F)cc1OC(F)(F)F [Compound 3c, 2,4'-Difluoro-3'-(trifluoromethoxy)biphenyl] | 109.9 |  | 
O=[N+]([O-])c1cccc(-c2ccccc2F)c1F [Compound 3d, 2,2'-Difluoro-3-nitrobiphenyl] | 68.06 |  | 
COc1ccccc1-c1ccc([N+](=O)[O-])cc1 [Compound 3f, 2-Methoxy-4'-nitrobiphenyl] | 32.55 |  | less potency
COc1ccccc1-c1ccc(F)c(C(F)(F)F)c1 [Compound 3g, 4'-Fluoro-2-methoxy-3'-(trifluoromethyl)biphenyl] | 76.84 |  | 
COc1ccccc1-c1ccc(F)c(OC(F)(F)F)c1 [Compound 3h, 4'-Fluoro-2-methoxy-3'-(trifluoromethoxy)biphenyl] | 67.31 |  | 
COc1ccccc1-c1cccc([N+](=O)[O-])c1F [Compound 3i, 2-Fluoro-2'-methoxy-3-nitrobiphenyl] | 54.94 |  | less potency
COc1ccc(F)c(-c2ccccc2OC)c1 [Compound 3j, 2-Fluoro-2',5-dimethoxybiphenyl] |  |  | less potency
